According to patent US20110159504A1, “METHYLATION MARKERS FOR SENSITIVITY TO MICROTUBE BASED THERAPIES AND METHODS OF USE” (THE JOHNS HOPKINS UNIVERSITY, priority 2008, published 2011):
Entries after “also recorded” stand apart in the source; their conditions may differ.

How the values were obtained:
[1] = test system: CHFR expression in esophageal cancer cell lines; assay: CHFR expression by RT-PCR in esophageal cancer cell lines after treatment with demethylating agent; assay type: cell-based; settings: for Expression of CHFR (RNA level, RT-PCR) in CHFR-methylated cell lines: KYSE150 and KYSE510, no expression at baseline, 72 hour treatment
Source text: A) Methylation-specific PCR (MSP) of the CHFR promoter region was examined in esophageal cancer cell lines. […] B) Expression of CHFR as determined by RT-PCR. […] C) Position of MSP primers and molecular beacon in the promoter region of the CHFR gene. A previously described gel-based MSP assay for detection of CHFR methylation in colorectal cancer was used 20.

[2] = test system: advanced localized esophageal cancer; assay: Response (pCR) and overall survival of esophageal cancer patients after neoadjuvant chemoradiotherapy and surgery, by CHFR methylation status; assay type: in vivo, human; settings: for Overall survival when CHFR methylation present vs. absent: paclitaxel n=31, docetaxel n=18, Kaplan-Meier; for Overall survival, docetaxel vs. paclitaxel: taxane-based therapy, N=49
Protocol: Endoscopic tumor biopsy specimens were studied from 81 patients with advanced localized esophageal cancer scheduled to undergo neoadjuvant chemoradiotherapy and surgery at the Johns Hopkins Hospital (JHH) between January 1995 and January 2007. Forty-nine patients were treated with taxane based combination chemoradiotherapy. Pretreatment esophageal tumor tissue from endoscsopic biopsy was initially available from JHH for twenty-one patients treated with taxanes. After an analysis of these initial 21 patients, IRB permission was obtained to request further biopsy specimens from referring endoscopy centers for patients subsequently treated at Johns Hopkins Hospital. This allowed analysis of pretreatment endoscopic tumor biopsies from an additional 28 patients treated with taxanes and 32 patients treated with non-taxane regimens. […] Of the forty-nine taxane-treated patients, thirty-one received paclitaxel containing combinations, while eighteen received a docetaxel-based combination shown in the Table below.
Response to preoperative chemoradiotherapy was based on pathology of the resected esophagus and nodal tissue specimen and classified as either pathologic complete response (pCR) or non-pCR, where pCR is the complete absence of intact tumor cells in surgical pathology specimens. We verified histological results and deaths during follow-up by re-examining original hospital records. This study was approved by the Johns Hopkins Institutional Review Board.
Methylation of CHFR was determined by detecting analyte (CHFR and ACTS) with real-time MSP using molecular beacons. These consisted of parallel amplification/quantification using specific primer and detector pairs for each analyte using the iCycler (BioRad Laboratories, Hercules, Calif.). […] Duplicate PCR amplifications were analyzed using iQuant 3.0 software (BioRad), exported as Ct values, and used to calculate copy numbers based on a linear regression of values plotted on a standard curve of 20-2×10^6 gene copy equivalents of plasmid DNA containing bisulfite modified CHFR. CHFR copy numbers were divided by ACTB copy numbers for each sample to normalize for DNA quality and quantity, multiplied by 100 for convenience to determine the ratio-value. […]
Based upon findings from the initial 21 patients treated with taxanes and 40% methylation prevalence, the study size necessary to detect a hazard ratio of death of 3.00 for unmethylated CHFR was estimated. […] The primary endpoint was time to death or censor measured from the origin date of pretreatment endoscopic biopsy. […] Associations between clinical response and CHFR methylation were assessed using logistic regression. […] Statistical comparisons and survival between groups were analyzed using the log-rank test. […]

SMILES | Expression of CHFR (RNA level, RT-PCR) in CHFR-methylated cell lines [1] | Expression of CHFR (RNA level, RT-PCR) in CHFR-methylated cell lines ([1]; listed as 5-aza-2′ deoxycytidine) | Expression of CHFR (RT-PCR) in unmethylated cell lines ([1]; all other (unmethylated) esophageal cancer cell lines, express CHFR at baseline) | Overall survival when CHFR methylation present vs. absent [2] | Overall survival, docetaxel vs. paclitaxel [2]
Nc1ncn([C@H]2C[C@H](O)[C@@H](CO)O2)c(=O)n1 [5-aza-2′-deoxycytidine] | re-express the gene at the RNA level | reversed | not affected | – | –
CC(=O)O[C@@]12CO[C@@H]1C[C@H](O)[C@@]1(C)C(=O)[C@H](O)C3=C(C)[C@@H](OC(=O)[C@H](O)[C@@H](NC(=O)OC(C)(C)C)c4ccccc4)C[C@@](O)([C@@H](OC(=O)c4ccccc4)[C@H]21)C3(C)C [docetaxel] | – | – | – | survival advantage; also recorded: improvement in survival | no difference
CC(=O)O[C@H]1C(=O)[C@@]2(C)[C@H]([C@H](OC(=O)c3ccccc3)[C@]3(O)C[C@H](OC(=O)[C@H](O)[C@@H](NC(=O)c4ccccc4)c4ccccc4)C(C)=C1C3(C)C)[C@]1(OC(C)=O)CO[C@@H]1C[C@@H]2O [paclitaxel] | – | – | – | survival advantage; also recorded: significantly greater | no difference
